Data from patent publication US20180163180A1, “METHOD OF ENHANCING SOMATIC CELL REPROGRAMMING WITH THE ACETYLLYSINE READER BRD3R” (THE UAB RESEARCH FOUNDATION, INC ., priority 2015, published 2018).

Assays:
[1] = molecular target: T1, biacetylated H3 (H3K9/14Ac) (Homo sapiens, UniProt P68431); assay: Histone peptide pull-down assay; type: binding; conditions: lysates of human fibroblasts overexpressing the protein
T1 construct: Histone tails used for peptide pull-down experiments; expressed in transfected cells; host or cells: human BJ fibroblasts transduced with BRD3R lentivirus (lysate)
Protocol: (§1) • Histone peptide pull-down assay: H3 or H4 histone tails with 8 different acetylation modifications were evaluated for binding with BRD3R and BRD3. One unmodified tail for each histone was used for negative control.
(§2) Human BJ fibroblasts were transduced with BRD3 or BRD3R viruses. Three days post-transduction, cells were lysed by non-denaturing lysis buffer (20 mM HEPES pH 7.9, 150 mM NaCl, 1 mM MgCl2, 0.5% NP40, 10 mM NaF, 0.2 mM NaVO4, 10 mM β-glycerol phosphate, 5% glycerol, 1 mM DTT, 1 mM PMSF and protease inhibitors). Twenty μg of the cell lysates were incubated with 1 μg biotinylated peptide in 300 μl binding buffer (50 mM Tris pH 7.5, 150 mM NaCl, 0.1% NP-40, 1 mM PMSF and protease inhibitors) at 4° C. for overnight. The next day, 30 μl of Dynabeads M-280 Streptavidin was added into each sample (Invitrogen, 11205D). The mixture of proteins, antibodies and beads were further incubated with gentle rotation at 4° C. for 1 h. The beads were then washed with binding buffer three times. The bound proteins were resuspended in 60 μl of 2× SDS sample buffer. The pull-down proteins were analyzed by western using antibody of BRD3 (Proteintech, 11859-1-AP). Two micrograms of cell lysates were loaded as input control. For semi-quantification, band density was normalized to the corresponding inputs.

H4K5Ac = molecular target: T2, H4K5Ac (Homo sapiens, UniProt P62805); assay: Histone peptide pull-down assay; type: binding; conditions: lysates of human fibroblasts overexpressing the protein
T2 construct: Histone tails used for peptide pull-down experiments; Peg-biotin (chemical label); expressed in transfected cells; host or cells: human BJ fibroblasts transduced with BRD3R lentivirus (lysate)
Protocol: as §1, §2

H3K9Ac = molecular target: T3, H3K9Ac (Homo sapiens, UniProt P68431); assay: Histone peptide pull-down assay; type: binding; conditions: lysates of human fibroblasts overexpressing the protein
T3 construct: Histone tails used for peptide pull-down experiments; expressed in transfected cells; host or cells: human BJ fibroblasts transduced with BRD3R lentivirus (lysate)
Protocol: as §1, §2

[2] = molecular target: T4, tetra-acetylated H4 (H4K5/8/12/16Ac) (Homo sapiens, UniProt P62805); assay: Histone peptide pull-down assay; type: binding; conditions: lysates of human fibroblasts overexpressing BRD3R or BRD3; western with BRD3 antibody
T4 construct: Histone tails used for peptide pull-down experiments; Peg-biotin (chemical label); incubated with lysate of human BJ fibroblasts transduced with BRD3R or BRD3 virus
Protocol: as §1, §2

H3K14Ac = molecular target: T5, H3K14Ac (Homo sapiens, UniProt P68431); assay: Histone peptide pull-down assay; type: binding; conditions: lysates of human fibroblasts overexpressing the protein
T5 construct: Histone tails used for peptide pull-down experiments; expressed in transfected cells; host or cells: human BJ fibroblasts transduced with BRD3R lentivirus (lysate)
Protocol: as §1, §2

reprogramming BJ cells = assay: RNA sequencing of cells on day 3 of reprogramming; type: cell-based, human
Protocol: • RNA sequencing: mRNA sequencing was performed on the Illumina HiSeq2500 using the sequencing reagents and flow cells providing up to 300 Gb of sequence information per flow cell. Briefly, the quality of the total RNA was assessed using the Agilent 2100 Bioanalyzer followed by 2 rounds of polyA+ selection and conversion to cDNA. The stranded mRNA library generation kits were used per manufacturer's instructions (Agilent, Santa Clara, Calif.). Library construction consists of random fragmentation of the polyA mRNA, followed by cDNA production using random primers with inclusion of Actinomycin D in the first strand reaction. The ends of the cDNA are repaired, polyA-tailed and adaptors ligated for indexing (4 different barcodes per lane) during the sequencing runs. The cDNA libraries were quantitated using qPCR in a Roche LightCycler 480 with the Kapa Biosystems kit for library quantitation (Kapa Biosystems, Woburn, Mass.) prior to cluster generation. Clusters were generated to yield approximately 725 K to 825 K clusters/mm^2. Cluster density and quality were determined during the run after the first base addition parameters were assessed. Paired end 2×50 bp sequencing runs were run to align the cDNA sequences to the reference genome.
• Bioinformatics: 25-65 million of paired 51 bp reads were obtained for each sample. RNA sequencing reads were mapped to the human reference genome (GRCh37/hg19) using TopHat (v2.0.13) (Kim et al., (2013) Genome Biol. 14: R36). For more accurate mapping, the mean insert sizes and the standard deviations were calculated using Picard-tools (v1.126), and were passed to the mapper along with a Gene Transfer File (GTF version GRCh37.70) and the data were re-aligned. Read count tables were generated using HT-seq (v0.6.0) (Anders et al., (2015) Bioinformatics 31: 166-169). Deferential Expression (DE) analysis was performed using DESeq (v3.0) (Anders & Huber (2010) Genome Biol. 11: R106). Cufflinks v2.2.1 (Trapnell et al., (2010) Nat. Biotechnol. 28: 511-515) and Cummerbund v3.0 (Goff et al., (2014): Visualization and Exploration of Cufflinks High-throughput Sequencing Data., pp. 45) were also used for calculating expression levels in FPKM and data visualization. The BigWig files were generated using Bedtools (v2.17.0) (Quinlan & Hall (2010) Bioinformatics 26: 841-842) and bedGraphToBigWig tool (v4). For the analysis of micro-array data, Limma v3.0 (Smyth G. K., (2005) in Bioinformatics and Computational Biology Solutions Using R and Bioconductor: Gentleman et al., Eds. (Springer: New York): Ch. 23: pp. 397-420) was used Gene Ontology (GO) analysis was conducted using PANTHER (Mi et al., (2013) Nat. Protoc. 8: 1551-1566), Cytoscape-BiNGO (Saito et al., (2012) Nat. Methods 9: 1069-1076) and DAVID (Huang da et al., (2009) Nat. Protoc. 4: 44-57). Lists of mitotic genes were compiled based on the results from the three tools.

- binding to H3K9/14Ac peptide [1]: bound very weakly
- binding to H4K5Ac peptide (H4K5Ac): weakly
- binding to H3K9Ac peptide (H3K9Ac): bound
- binding to H4K5/8/12/16Ac peptide [2]: bound strongly
- binding to H3K14Ac peptide (H3K14Ac): bound
Substance: BRD3R: BRD3 with Reprogramming activity; 556 aa isoform of human BRD3 (AAH32124, SEQ ID NO: 47), encoded by cDNA L61
- expression of CDKN2A, CDKN2B, CDKN1A, TP53 (p53-p21 pathway) (reprogramming BJ cells; BRD3R reprogramming cells): Downregulation was not seen
- AFC of CEP78 (reprogramming BJ cells; day 3 of reprogramming): 0.94 ×
- AFC of ERG (reprogramming BJ cells; day 3 of reprogramming): 0.84 ×
- AFC of PSMB9 (reprogramming BJ cells; day 3 of reprogramming): 0.87 ×
- number of upregulated genes in the mitotic category (reprogramming BJ cells; of 335 GO mapped genes, day 3): 128 genes
- AFC of the 23 always upregulated mitotic genes (reprogramming BJ cells; p<0.05, day 3): at least 2.24 ×
- total mitotic genes statistically upregulated in at least one comparison (reprogramming BJ cells; ≥1.5×, p<0.05, 4 IFC and 1 AFC comparisons, day 3): 185 genes
- number of genes upregulated in BRD3R-expressing cells (reprogramming BJ cells; ≥1.7×, p<0.05, ADNRC≥50, day 3): 401 genes
